What follows are molecules tested on NCI-H929 multiple myeloma cells (assay: Cell Titer-GLO (CTG) assay for proliferation of NCI-H929 cells). Settings: Homo sapiens, 72 hours.
Format: cell-based
Procedure: 1. Experimental objective: To determine inhibitory activities of compounds on NCI-H929 multiple myeloma cells.
NCI-H929 cells, purchased from Nanjing Cobioer Biotechnology Co., Ltd, were cultured in RPM11640 (Viva; C3010-0500) medium containing 10% fetal bovine serum (Viva, C04002-500) and 1% of penicillin-streptomycin at 37° C. with 5% of C02 and saturated humidity conditions.
The cells in logarithmic growth phase were plated at 5000 cells per well of a 96-well plate and after overnight incubation, compounds at 0.00512 nM, 0.0256 nM, 0.128 nM, 0.64 nM, 3.2 nM, 16 nM, 80 nM, and 400 nM were dosed into the plate with each dose in 2 duplicate wells. Cells were incubated at 37° C., 5% CO2 for 72 hours. After the incubation, the plate was placed at room temperature for half an hour, and then 50 μL of Cell Titer-Glo® (Promega, G7573) was added. The plate was placed on a shaker for uniform mixing for 2 minutes and was placed in the dark at room temperature for 10 minutes. The luminance signal was measured using SpectraMax Paradigm (Molecular Devices).
Cell activity inhibition rate (%)=1 00−(RLUcompound−RLUblank)/(RLUcontrol−RLUblank)×100%, where control refers to the 0.1% DMSO treatment group, and blank refers to the culture medium control. IC50 values and maximum inhibition rates of the compounds were calculated using a nonlinear regression function “Dose-Response-Inhibition” in Graphpad Prism 7.0.

IC50	Compound
0.02 nM	Cc1nc(N2CCN(Cc3ccc(Cc4ccc5c6c(cccc46)C(=O)N5C4CCC(=O)NC4=O)cc3)CC2)cc(-n2cnc(C)n2)n1 (single isomer, unassigned) [Example 47]
0.02 nM	O=C1CCC(N2C(=O)c3cccc4c(Cc5ccc(CN6CCN(c7cccc(-n8ccnc8)n7)CC6)cc5)ccc2c34)C(=O)N1 (stereo not drawn) [Example 2, 3-(6-(4-((4-(6-(1H-imidazol-1-yl)pyridin-2-yl)piperazin-1-vi)methyl)benzyl)-2-oxobenzo[cd]indol-1(2H)-yl)piperidin-2,6-dione]
0.07 nM	O=C1CCC(N2C(=O)c3cccc4c(Cc5ccc(CN6CCC(NC(=O)c7cccc(-n8ccnc8)n7)CC6)cc5)ccc2c34)C(=O)N1 (stereo not drawn) [Example 6, N-(1-(4-((1-(2,6-dioxopiperidin-3-yl)-2-oxo-1,2-dihydrobenzo[cd]indol-6-yl)methyl)benzyl)piperidin-4-yl)-6-(1H-imidazol-1-yl)pyridin-2-carboxamide]
0.05 nM	O=C1CCC(N2C(=O)c3cccc4c(Cc5ccc(CN6CCC(NC(=O)c7ccnc(-n8ccnc8)n7)CC6)cc5)ccc2c34)C(=O)N1 (stereo not drawn) [Example 7, N-(1-(4-((1-(2,6-dioxopiperidin-3-yl)-2-oxo-1,2-dihydrobenzo[cd]indol-6-yl)methyl)benzyl)piperidin-4-yl)-2-(1H-imidazol-1-yl)pyrimidin-4-carboxamide]
0.04 nM	O=C1CCC(N2C(=O)c3cccc4c(Cc5ccc(CN6CCN(CC7CCN(c8cccc(-n9ccnc9)n8)CC7)CC6)cc5)ccc2c34)C(=O)N1 (stereo not drawn) [Example 8, 3-(6-(4-((4-((1-(6-(1H-imidazol-1-yl)pyridin-2-yl)piperidin-4-yl)methyl)piperazin-1-yl)methyl)benzyl)-2-oxobenzo[cd]indol-1(2H)-yl)piperidin-2,6-dione]
0.07 nM	O=C1CCC(N2C(=O)c3cccc4c(Cc5ccc(CN6CCC(Nc7ccnc(-n8ccnc8)n7)CC6)cc5)ccc2c34)C(=O)N1 (stereo not drawn) [Example 9, 3-(6-(4-((4-((2-(1H-imidazol-1-yl)pyrimidin-4-yl)amino)piperidin-1-yl)methyl)benzyl)-2-oxobenzo[cd]indol-1(2H)-yl)piperidin-2,6-dione]
0.03 nM	Cc1cc(N2CCN(Cc3ccc(Cc4ccc5c6c(cccc46)C(=O)N5C4CCC(=O)NC4=O)cc3)CC2)nc(-n2ccnc2)n1 (stereo not drawn) [Example 10, 3-(6-(4-((4-(2-(1H-imidazol-1-yl)-6-methylpyrimidin-4-yl)piperazin-1-yl)methyl)benzyl)-2-oxobenzo[cd]indol-1(2H)-yl)piperidin-2,6-dione]
0.05 nM	Cc1cc(C(=O)N2CCN(Cc3ccc(Cc4ccc5c6c(cccc46)C(=O)N5C4CCC(=O)NC4=O)cc3)CC2)nc(-n2ccnc2)n1 (stereo not drawn) [Example 11, 3-(6-(4-((4-(2-(1H-imidazol-1-yl)-6-methylpyrimidin-4-carbonyl)piperazin-1-yl)methyl)benzyl)-2-oxobenzo[cd]indol-1(2H)-yl)piperidin-2,6-dione]
0.07 nM	Cc1cc(C(=O)NC2CCN(Cc3ccc(Cc4ccc5c6c(cccc46)C(=O)N5C4CCC(=O)NC4=O)cc3)CC2)nc(-n2ccnc2)n1 (stereo not drawn) [Example 12, N-(1-(4-((1-(2,6-dioxopiperidin-3-yl)-2-oxo-1,2-dihydrobenzo[cd]indol-6-yl)methyl)benzyl)piperidin-4-yl)-2-(1H-imidazol-1-yl)-6-methylpyrimidin-4-carboxamide]
0.07 nM	O=C1CCC(N2C(=O)c3cccc4c(Cc5ccc(CN6CCN(c7ccnc(-n8ccnc8C(F)(F)F)n7)CC6)cc5)ccc2c34)C(=O)N1 (stereo not drawn) [Example 13, 3-(2-oxo-6-(4-((4-(2-(2-(trifluoromethyl)-1H-imidazol-1-yl)pyrimidin-4-yl)piperazin-1-yl)methyl)benzyl)benzo[cd]indol-1(2H)-yl)piperidin-2,6-dione]
0.1 nM	O=C1CC[C@H](N2Cc3c(OCc4ccc(CN5CCN([C@H]6CC[C@H](NC(=O)c7ccnc(-n8ccnc8)n7)CC6)CC5)cc4)cccc3C2=O)C(=O)N1 [Example 15, N-((1R,4R)-4-(4-(4-(((2-((S)-2,6-dioxopiperidin-3-yl)-1-oxoisoindolin-4-yl)oxy)methyl)benzyl)piperazin-1-yl)cyclohexyl)-2-(1H-imidazol-1-yl)pyrimidin-4-carboxamide]
0.05 nM	O=C1CC[C@H](N2Cc3c(OCc4ccc(CN5CCN([C@H]6CC[C@H](NC(=O)c7cccc(-n8ccnc8)n7)CC6)CC5)cc4)cccc3C2=O)C(=O)N1 [Example 16, N-((1R,4R)-4-(4-(4-(((2-((S)-2,6-dioxopiperidin-3-yl)-1-oxoisoindolin-4-yl)oxy)methyl)benzyl)piperazin-1-yl)cyclohexyl)-6-(1H-imidazol-1-yl)pyridin-2-carboxamide]
0.1 nM	O=C1CC[C@H](N2Cc3c(OCc4ccc(CN5CCN(CC6CCN(c7cccc(-n8ccnc8)n7)CC6)CC5)cc4)cccc3C2=O)C(=O)N1 [Example 17, (S)-3-(4-((4-((4-((1-(6-(1H-imidazol-1-yl)pyridin-2-yl)piperidin-4-yl)methyl)piperazin-1-yl)methyl)benzyl)oxy)-1-oxoisoindolin-2-yl)pyridin-2,6-dione]
0.3 nM	O=C1CC[C@H](N2Cc3c(OCc4ccc(CN5CCN(c6cccc(-c7cncs7)n6)CC5)cc4)cccc3C2=O)C(=O)N1 [Example 19, (S)-3-(1-oxo-4-((4-((4-(6-(thiazol-5-yl)pyridin-2-yl)piperazin-1-yl)methyl)benzyl)oxy)isoindolin-2-yl)piperidin-2,6-dione]
0.01 nM	Cn1cncc1-c1nccc(N2CCN(Cc3ccc(Cc4ccc5c6c(cccc46)C(=O)N5C4CCC(=O)NC4=O)cc3)CC2)n1 (stereo not drawn) [Example 20, 3-(6-(4-((4-(2-(1-methyl-1H-imidazol-5-yl)pyrimidin-4-yl)piperazin-1-yl)methyl)benzyl)-2-oxobenzo[cd]indol-1(2H)-yl)piperidin-2,6-dione]
0.1 nM	CC(C)n1cnnc1-c1cccc(N2CCN(Cc3ccc(Cc4ccc5c6c(cccc46)C(=O)N5C4CCC(=O)NC4=O)cc3)CC2)n1 (stereo not drawn) [Example 24, 3-(6-(4-((4-(6-(4-isopropyl-4H-1,2,4-triazol-3-yl)pyridin-2-yl)piperazin-1-yl)methyl)benzyl)-2-oxobenzo[cd]indol-1(2H)-yl)piperidin-2,6-dione]
0.06 nM	O=C1CCC(N2C(=O)c3cccc4c(Cc5ccc(CN6CCN(c7ccnc(-n8cnc(C9CC9)c8)n7)CC6)cc5)ccc2c34)C(=O)N1 (stereo not drawn) [Example 26, 3-(6-(4-((4-(2-(4-cyclopropvl-1H-imidazol-1-yl)pyrimidin-4-yl)piperazin-1-yl)methyl)benzyl)-2-oxobenzo[cd]indol-1(2H)-yl)piperidin-2,6-dione]
0.1 nM	O=C1CCC(N2C(=O)c3cccc4c(Cc5ccc(CN6CCC(O[C@H]7CC[C@@H](NC(=O)c8cccc(-n9ccnc9)n8)CC7)CC6)cc5)ccc2c34)C(=O)N1 (stereo partly drawn) [Example 27, N-((1s,4s)-4-((1-(4-((1-(2,6-dioxopiperidin-3-yl)-2-oxo-1,2-dihydrobenzo[cd]indol-6-yl)methyl)benzyl)piperidin-4-yl)oxy)cyclohexyl)-6-(1H-imidazol-1-yl)pyridin-2-carboxamide]
0.03 nM	Cc1nncn1-c1cccc(N2CCN(Cc3ccc(Cc4ccc5c6c(cccc46)C(=O)N5C4CCC(=O)NC4=O)cc3)CC2)n1 (stereo not drawn) [Example 28, 3-(6-(4-((4-(6-(3-methyl-4H-1,2,4-triazol-4-yl)pyridin-2-yl)piperazin-1-yl)methyl)benzyl)-2-oxobenzo[cd]indol-1(2H)-yl)piperidin-2,6-dione]
0.02 nM	Cc1nc(N2CCN(Cc3ccc(Cc4ccc5c6c(cccc46)C(=O)N5C4CCC(=O)NC4=O)cc3)CC2)cc(-n2cnc(C(F)(F)F)c2)n1 (stereo not drawn) [Example 29, 3-(6-(4-((4-(2-methyl-6-(4-(trifluoromethyl)-1H-imidazol-1-yl)pyrimidin-4-yl)piperazin-1-yl)methyl)benzyl)-2-oxobenzo[cd]indol-1(2H)-yl)piperidin-2,6-dione]
< 0.005 nM	O=C1CCC(N2C(=O)c3cccc4c(Cc5ccc(CN6CC(N7CCN(c8cccc(-n9ccnc9)n8)CC7)C6)cc5)ccc2c34)C(=O)N1 (stereo not drawn) [Example 32]
0.02 nM	O=C1CC[C@H](N2C(=O)c3cccc4c(Cc5ccc(CN6CCN(c7ccnc(-n8cnc(C(F)(F)F)c8)n7)CC6)cc5)ccc2c34)C(=O)N1 [Example 33, (S)-3-(2-oxo-6-(4-((4-(2-(4-(trifluoromethyl)-1H-imidazol-1-yl)pyrimidin-4-yl)piperazin-1-yl)methyl)benzyl)benzo[cd]indol-1(2H)-yl)piperidin-2,6-dione]
0.03 nM	O=C1CC[C@@H](N2C(=O)c3cccc4c(Cc5ccc(CN6CCN(c7ccnc(-n8cnc(C(F)(F)F)c8)n7)CC6)cc5)ccc2c34)C(=O)N1 [Example 34, (R)-3-(2-oxo-6-(4-((4-(2-(4-(trifluoromethyl)-1H-imidazol-1-yl)pyrimidin-4-yl)piperazin-1-yl)methyl)benzyl)benzo[cd]indol-1(2H)-yl)piperidin-2,6-dione]
0.01 nM	Cc1nnc(-c2cccc(N3CCN(Cc4ccc(Cc5ccc6c7c(cccc57)C(=O)N6[C@H]5CCC(=O)NC5=O)cc4)CC3)n2)s1 [Example 35, (S)-3-(6-(4-((4-(6-(5-methyl-1,3,4-thiadiazol-2-yl)pyridin-2-yl)piperazin-1-yl)methyl)benzyl)-2-oxobenzo[cd]indol-1(2H)-yl)piperidin-2,6-dione]
